Measured values as given in publication PMC314469, “Protein Interaction Networks by Proteome Peptide Scanning” (PLoS Biology, 2004).

These sequences were tested on Myo5 SH3 domain (assay: SPOT analysis of cellulose-bound peptides (WISE), Myo5 SH3 domain (Dataset S4)). Conditions: SPOT analysis of cellulose-bound 14-mer yeast proteome peptides, Myo5 SH3 domain; normalized value; mean where the peptide was synthesized more than once.
Assay type: binding, Saccharomyces cerevisiae

Sequence	The normalized value in BLU units [BLU]
AADWYEVPKVPLSA	275.4
AAMMLGNPMAPAVQ	256.9
AAMNLETPSNPDSA	84.9
AARILANPDHPFSR	165.5
AEAYLVTPEEPAKN	39.6
AEFDLTDPEVPSFY	165.8
AGHIKTHPNSPTPG	60.3
AKSNKVSPEDPAVQ	371.0
ALDNFTLPGTPGFP	180.7
ALGIFFAPESPWWL	229.3
ALRKFGYPFSPNDP	166.2
ALWAKFFPEKPLNI	154.0
ALYHLSNPNVPKLW	195.7
APKKWKAPKGPKPT	1010.5
APLLYSCPSEPMAY	83.1
APPALSAPSIPPVP	10786.3

Sequence	The normalized value in BLU units [BLU]
APPALSAPSVPPVP	6575.3
APQPHLLPWLPPTD	117.4
DEFTLDLPRIPSLE	180.8
DFIKLMNPTLPSLK	151.5
DFNKFERPNIPVEE	212.3
DFVTLHVPATPETE	190.5
DGKLKHIPRRPYEI	306.6
DLDWRKIPFLPKEI	250.1
DLIHLDCPQQPNGY	219.5
DLSVHTSPHGPIGS	186.1
DPNQLSTPPTPKSA	166.4
DTYARNNPDFPPQN	138.5
EADGLVQPVVPDKV	75.1
EAFKLPKPWSPNSH	141.0
EAYRLNYPELPRLT	125.1

Same assay, conditions: SPOT analysis of cellulose-bound peptides probed with Myo5 SH3 domain; normalized value

Sequence	The normalized value in BLU units (SPOT analysis, Myo5 SH3) [BLU]
AADSHAIPVDPPSY	37.9
AANAHISPPVPGPA	28.6
AAPKHAPPPVPNET	110580.8
AAVRLDQPILPQND	105.1
AAYDHAEPVQPEDA	146.1
AELFLGIPIFPGAS	36.7
AELFLRRPIFPGRD	215.9
AELLLGQPMFPGES	172.2
AELMLRIPYLPGQN	236.4
AEVYYGPPTDPRKQ	83.5
AFHELGIPVIPNPS	193.0
AFHFWRPPIAPAEM	1961.3
ALDYLIPPPMPKNQ	130.6
ALGFYRAPGSPAPA	100.8
ALKEMTHPIKPSAQ	261.0
ALKSLSNPSSPWQQ	30.3
ALNNWILPSTPHIQ	169.3
APAPPPPPQMPAT	7749

Sequence	The normalized value in BLU units (SPOT analysis, Myo5 SH3) [BLU]
APKYYVPPGIPTND	10351.6
DARPFLKPVDPIAL	126.2
DARPFLQPVDPVKL	179.1
DELLLMSPELPADL	16.0
DFPLYKSPAFPSSC	172.8
DFRLHYYPKDPSNV	77.7
DFSSYGPPGTPGYD	108.5
DLKEFNGPEPPIKR	125.6
DLLGLSTPQSPTNS	91.9
DLMALKYPYFPTKM	139.1
DLSYYLRPIKPFNT	160.7
DPNAYMQPQVPVQM	160.5
DPSLYQIPEPPRGG	98.8
EAGDFEQPKGPAGA	49.8
EAHQHHQPPEPQPY	0.0
EAIKLGVPKGPLFA	130.4
EARPYSEPSEPEDS	208.3

Same assay, conditions: SPOT analysis of membrane-bound peptides, Myo5 SH3 domain; normalized value (see methods)

Sequence	The normalized value in BLU units [BLU]
AALVKFVPSKPMCV	280.9
ADDLKYIPPIPQDF	86.7
AFWWKKNPKTPSDY	65.0
AGMAKTKPDVPLSY	157.7
AGPRKYIPRAPAQG	194.7
AGQERFAPLAPMYY	100.8
AKLHRTKPVKPLSK	501.8
AKLRKFHPPEPYKG	119.3
AMESRVAPEIPGLI	426.0
APPPKEEPAAPTST	116.7
AQKLKLLPEEPFQR	400.9
ASKHKMFPFNPAKI	953.1
ATEAKCLPKIPSIP	136.7
ATKRKTIPVYPPVQ	273.7
ATVVKNCPGDPELF	76.2
AVVYKLKPYIPSLS	112.0
CAKSKSRPNTPGSD	153.0
CFKTKFAPEAPDLF	209.0
CKYNRQHPANPAAA	189.3
CLRARNGPVPPVHI	207.8

Sequence	The normalized value in BLU units [BLU]
CNRARYLPQNPDII	243.9
CRHLKLVPSTPMDI	361.8
DDIIKDHPHIPNGQ	57.8
DDNVRPSPISPSIN	153.4
DEALRYCPDAPIVL	127.1
DETRKLTPCSPGDD	230.8
DFIGRKSPDLPEYL	138.7
DIKTRSVPKIPSIE	102.3
DIPLKQVPENPMPT	62.9
DIPRRYIPITPADL	33.0
DKFIKLIPMRPVLI	252.9
DKKKKKYPRKPKKN	532.3
DLKKKYAPDPPITH	185.5
DLQKKYEPSPPATH	224.6
DLSLRYAPNLPRVI	249.6
DPSDKSLPQQPFHK	191.9
DSVLRQKPDKPRPI	134.9
DSYSRSRPTRPLGY	261.3
EDLVKKPPFIPSPT	755.9

Same assay, conditions: SPOT analysis of membrane-synthesized peptides probed with Myo5 SH3 domain; normalized value

Sequence	The normalized value in BLU units (SPOT analysis, Myo5 SH3) [BLU]
AEIVKLTPKNPFYK	102.1
AERAKKAPSLPEGQ	389.2
AFVPKRKPSLPQLA	1744.9
AFYYKYYPVEPNCN	187.7
AGLYKLSPLYPFDV	133.2
AISKKLGPDTPIKV	176.5
AKDYRFNPAIPLRI	304.4
AKIDKVSPEDPWVL	248.0
AKINKVSPEDPWVL	121.0
AKTNKNVPVLPTPG	130.3
AKVNKCPPDHPYIQ	164.3
ALEERFDPKSPTKR	108.5
ALLIKTVPGFPLLE	144.3
ALLRRTIPKRPFYH	914.3
ALSTKGYPHEPPLL	138.6
APVVKSEPSLPRMR	241.2
ASFRKTKPPPPLDF	169.0
ATGKRKLPGWPSAD	136.1
AVGGKWEPGNPIAI	78.4

Sequence	The normalized value in BLU units (SPOT analysis, Myo5 SH3) [BLU]
AVLIRADPLNPKVV	102.0
AVQLKRQPAQPRES	237.9
CNYSKIFPGIPISL	49.2
CWHPKTIPKQPMEI	342.9
DEFNRNTPPQPSLL	118.0
DENSKWQPSDPFTM	285.2
DEPIRYAPGDPIEK	106.5
DFRGRAYPLSPHFN	785.0
DIGSKKLPTGPSKK	219.8
DILKKESPDVPLFD	146.1
DKIFKTDPNEPAND	99.1
DNELKDEPEPPNLI	179.2
DQLNRLLPNLPEEE	47.5
DRKNRAPPQRPRFN	2434.1
DRLSKIKPFLPQSI	225.5
DVNHRYPPMAPTTV	175.5
DYRPKCIPCPPNGI	154.3
EEEAKSVPPIPADQ	29.4
